The conditions of experiment [1]: commercially available topical steroids (skin); cited from earlier work.
In another experiment the test system is recurrent pterygium. The conditions noted are these: bevacizumab not as part of the combination therapy; temporarily = e.g. 6 months or less; cited from earlier work.
For another experiment, the system named is pterygium recurrence. The experiment can be described thus: Treatment of pterygium recurrence after pterygiectomy with bevacizumab, with or without combination therapy (Patients 1-5). The format is in vivo, human. The conditions noted are these: for Time without recurrence of pterygium: steroid and NSAID; for No pterygium regrowth observed as of (time after surgery): after third surgical removal and conjunctival grafting; for No pterygium regrowth observed as of (time after surgery) / No regrowth of pterygium observed as of (time after surgery): bevacizumab injections, NSAID eye drops; for No regrowth of pterygium observed as of (time after surgery): steroid eye drops. The source says: A topical anesthetic (proparacaine 0.5% eye drops or Alcaine manufactured by Alcon Laboratories Inc.) was applied to the eye following recent pterygiectomy (from ˜5 days to 2 months following surgery). The patients were examined to identify vascular growth on eye conjunctiva. […] If blood was present (indicating presence of blood vessel), the syringe needle was withdrawn. […] If bleeding occurred (e.g., in the form of subconjunctival or subcutaneous hematoma), tamponade with Q-Tips® was performed until bleeding stopped; then injection was resumed.
Anti-inflammatory steroid drops (prednisolone acetate 1% (Allergan)) were given for 6 weeks with frequency range from once a day to 4 times a day (every 6 hours) to every hour (24 drops/day). NSAID eye drops (Diclofenac 0.1% (Bausch and Lomb)) drops (1 mg/mL to 100 mg/mL) were given multiple times, 4 times a day every 6 hours for 3 to 6 months.
Patients were followed up to monitor for appearance of new blood vessel growth in the eye.
Five patients (Patients 1-5) underwent surgery to remove primary pterygium (pterygiectomy) from the cornea of one or both eyes followed by conjunctival grafting were treated as described below.

“Also recorded” adds a separate entry of the source.

Turning to `CCCCC(=O)O[C@]1(C(=O)CO)[C@@H](C)C[C@H]2[C@@H]3CCC4=CC(=O)C=C[C@]4(C)[C@@]3(F)[C@@H](O)C[C@@]21C` [Betamethasone valerate], the Potency entry in experiment [1] is “Medium-Low”.
Turning to “Bevacizumab: 149-Kd full length humanized anti-vascular endothelial growth factor (anti-VEGF) antibody”, the “Effect on recurrent pterygium reported in the literature” value in the experiment with recurrent pterygium is on record as “not effective or only temporarily effective; also recorded: temporary treatment”. The “Time without recurrence of pterygium” value in the experiment with pterygium recurrence (FIG. 2 (Patient 2), combination therapy of bevacizumab) was greater than 8 months; with pterygium recurrence (FIG. 4 (Patient 4), combination therapy of bevacizumab), greater than 9 months; in the experiment with pterygium recurrence (FIG. 5 (Patient 5), combination therapy of bevacizumab), greater than 3 months; in the experiment with pterygium recurrence (FIGS. 3A, 3B (Patient 3), combination therapy of bevacizumab) it was greater than 6 months. Also, the “Pterygium Recurrence” value with pterygium recurrence (Patient 1, Right eye, bevacizumab + steroid (injected and/or eye drops) + topical NSAID eye drops) was “No”; in the experiment with pterygium recurrence (Patient 2, Left eye, bevacizumab + steroid (injected and/or eye drops) + topical NSAID eye drops), “No”; with pterygium recurrence (Patient 3 (number not printed in row), Left Eye, bevacizumab + steroid (Kenalog injection), no NSAID), “completely regrew and Yes”; in the experiment on pterygium recurrence (Patient 3 (number not printed in row), Right Eye, bevacizumab + steroid + topical NSAID eye drops), “No”; in the experiment on pterygium recurrence (Patient 4, Right Eye, bevacizumab + steroid + topical NSAID eye drops), “No”; with pterygium recurrence (Patient 5, Right Eye, bevacizumab + steroid + topical NSAID eye drops) it was “No”. In addition, the “No pterygium regrowth observed as of (time after surgery)” value with pterygium recurrence (Patient 1 right eye, bevacizumab+Kenalog injection) was “about 520 days”; in the experiment with pterygium recurrence (Patient 2 left eye, bevacizumab and Kenalog injections) it was “about 240 days”. Moreover, the “Pterygium recurrence after bevacizumab injection alone” value with pterygium recurrence (Patient 2 left eye, single bevacizumab injection on Day 17 after second surgical removal, no steroid or NSAID) is recorded as “further recurrence of the pterygium”. In addition, the “No regrowth of pterygium observed as of (time after surgery)” value is “about 130 days” in the experiment with pterygium recurrence (Patient 3 right eye, after surgical removal and amniotic membrane grafting); “about 250 days” in the experiment on pterygium recurrence (Patient 4 right eye, after first surgical procedure, bevacizumab and Kenalog injections). Moreover, in the experiment with pterygium recurrence (combination therapy of bevacizumab, anti-inflammatory steroid (injected or topical) and topical NSAID, Patients 1-5), the “Pterygium regrowth (overall conclusion)” value is “inhibited”. In addition, the “Combination therapy compared with bevacizumab alone” value in the experiment on pterygium recurrence (combination therapy of bevacizumab, anti-inflammatory steroid and topical NSAID vs bevacizumab alone) is recorded as “superior”.
Consider `CC(=O)OCC(=O)[C@@]12OC3(CCCC3)O[C@@H]1C[C@H]1[C@@H]3CCC4=CC(=O)C=C[C@]4(C)[C@@]3(F)[C@@H](O)C[C@@]12C` [Amcinonide], for which the Potency entry in experiment [1] is on record as “High”.

Values taken from patent US10556008B2, “Methods of treatment of keloid using an anti-VEGF agent” (priority 2012, dated 2020).
